Source: the NIST ThermoML archive (doi:10.1016/j.fluid.2006.01.030)

Legend:
[1] = Liquid
[2] = xn = mol fraction of the nth substance listed; details: Liquid, x1 = 1

CCO [ethanol]
viscosity [mPa·s], [1]
Details	293.15 K	313.15 K	333.15 K	353.15 K
100 kPa, Capillary tube (Ostwald / Ubbelohde) method	1.194	0.826	0.59	–
20000 kPa, Falling or rolling sphere viscometry	1.344	0.948	0.683	0.51
40000 kPa, Falling or rolling sphere viscometry	1.494	1.059	0.769	0.574
60000 kPa, Falling or rolling sphere viscometry	1.647	1.171	0.851	0.636
80000 kPa, Falling or rolling sphere viscometry	1.797	1.282	0.934	0.699
100000 kPa, Falling or rolling sphere viscometry	1.955	1.392	1.015	0.763

CCO [ethanol] + CCCCCCC
viscosity [mPa·s], [2]
Details	293.15 K	313.15 K	333.15 K	353.15 K
100 kPa, Capillary tube (Ostwald / Ubbelohde) method	1.194	0.826	0.59	–
20000 kPa, Falling or rolling sphere viscometry	1.344	0.948	0.683	0.51
40000 kPa, Falling or rolling sphere viscometry	1.494	1.059	0.769	0.574
60000 kPa, Falling or rolling sphere viscometry	1.647	1.171	0.851	0.636
80000 kPa, Falling or rolling sphere viscometry	1.797	1.282	0.934	0.699
100000 kPa, Falling or rolling sphere viscometry	1.955	1.392	1.015	0.763

CCCCCCC [heptane]
viscosity [mPa·s], [1]
Details	293.15 K	313.15 K	333.15 K	353.15 K
100 kPa, Capillary tube (Ostwald / Ubbelohde) method	0.41	0.333	0.276	0.232
20000 kPa, Falling or rolling sphere viscometry	0.509	0.408	0.336	0.289
40000 kPa, Falling or rolling sphere viscometry	0.604	0.487	0.402	0.346
60000 kPa, Falling or rolling sphere viscometry	0.706	0.57	0.472	0.401
80000 kPa, Falling or rolling sphere viscometry	0.817	0.658	0.546	0.458
100000 kPa, Falling or rolling sphere viscometry	0.937	0.751	0.623	0.521
